The subject of the first experiment is HepG2 cells. Put plainly: In vitro De Novo Lipogenesis (DNL) assay, 13C-acetate incorporation into palmitic acid. The class given is cell-based. The conditions noted are these: 1 hour preincubation, 24 hours with 10 mM 13C-labeled acetate. The protocol: De Novo Lipogenesis (DNL) was measured in vitro in HepG2 cells by quantifying the incorporation of ^13C-labeled acetate into palmitic acid.
HepG2 cells were plated in growth medium (DMEM (Corning cat #15-018-CM) supplemented with 10% FBS (HyClone cat #SH30071-03), and 1× penicillin, streptomycin, glutamine (Corning cat #30-009-CI)) at 10,000 cells/well in a 384-well cell culture-treated plate (Greiner cat #781091). The cells were then incubated overnight at 37° C., 5% CO2. The next day, the cells were washed twice with sterile DPBS (Corning cat #21-031-CM) and the culture medium was changed to fresh growth medium. The compounds of interest were dosed to cells, followed by a 1 hour incubation at 37° C., 5% CO2. ^13C-labeled acetate (Sigma-Aldrich cat #279315-1G) was added to the culture medium at a concentration of 10 mM and the cells were incubated for 24 hours at 37° C., 5% CO2.
In order to analyze the lipid content of the HepG2 cells, the culture medium was removed and the cells were lysed by adding 30 μL of 0.1 M NaOH. After 5 minutes of incubation at room temperature, 15 μL of cell lysate was transferred to a 384-well deep-well plate (Sigma-Aldrich cat #BR701355-48EA) containing 15 μL of 7.3% KOH in ethanol and mixed. This plate was sealed and incubated at 70° C. for 4 hours to hydrolyze the lipids to free fatty acids. 100 μL of acetonitrile was then added and the plate was spun at 3,700 g for 20 minutes to separate the organic and aqueous phases. 50 μL from the top (organic) phase was transferred to a new 384-well plate (NUNC cat #264573) and the samples were analyzed by mass spectrometry using a RapidFire coupled to a QTOF mass spectrometer. The sum of the area under curve (AUC) for palmitate containing 3 to 7 ^13C was normalized with the AUC of oleate and plotted against compound concentration to determine the potency of ACC inhibitors. […]
On to “2-(1-((R)-2-(((1R,3s,5S)-8-oxabicyclo[3.2.1]octan-3-yl)oxy)-2-(2-methoxyphenyl)ethyl)-5-methyl-6-(oxazol-2-yl)-2,4-dioxo-1,4-dihydrothieno[2,3-d]pyrimidin-3 (2H)-yl)-N-(tert-butylsulfonyl)-2-methylpropanamide [Example 3]”, for which the midpoint of the response, the EC50, lay at 1.5 nM. Still for that read-out and setting: the same measure for `COc1ccccc1[C@H](Cn1c(=O)n(C(C)(C)C(=O)NS(=O)(=O)C2CC2)c(=O)c2c(C)c(-c3ncco3)sc21)O[C@@H]1C[C@H]2CC[C@@H](C1)O2` [Example 4, 2-(1-((R)-2-(((1R,3s,5S)-8-oxabicyclo[3.2.1]octan-3-yl)oxy)-2-(2-methoxyphenyl)ethyl)-5-methyl-6-(oxazol-2-yl)-2,4-dioxo-1,4-dihydrothieno[2,3-d]pyrimidin-3 (2H)-yl)-N-(cyclopropylsulfonyl)-2-methylpropanamide]: 1.7 nM.

Staying with this experiment, now noted: Homo sapiens, 1 hour preincubation, 24 hours with 10 mM 13C-labeled acetate.
For `COc1ccccc1[C@H](Cn1c(=O)n(C(C)(C)C(=O)NS(=O)(=O)C2(C(F)F)CC2)c(=O)c2c(C)c(-c3ncco3)sc21)O[C@@H]1C[C@H]2CC[C@@H](C1)O2` [Example 2, 2-(1-((R)-2-(((1R,3s,5S)-8-oxabicyclo[3.2.1]octan-3-yl)oxy)-2-(2-methoxyphenyl)ethyl)-5-methyl-6-(oxazol-2-yl)-2,4-dioxo-1,4-dihydrothieno[2,3-d]pyrimidin-3(2H)-yl)-N-((1-(difluoromethyl)cyclopropyl)sulfonyl)-2-methylpropanamide], the EC50 was found to be 5.9 nM. On the same count and under the same terms, then `COc1ccc(F)cc1[C@H](Cn1c(=O)n(C(C)(C)C(=O)NS(=O)(=O)C2(C)CC2)c(=O)c2c(C)c(-c3ncco3)sc21)O[C@@H]1C[C@H]2CC[C@@H](C1)O2` [Example 5, 2-(1-((R)-2-(((1R,3s,5S)-8-oxabicyclo[3.2.1]octan-3-yl)oxy)-2-(5-fluoro-2-methoxyphenyl)ethyl)-5-methyl-6-(oxazol-2-yl)-2,4-dioxo-1,4-dihydrothieno[2,3-d]pyrimidin-3(2H)-yl)-2-methyl-N-((1-methylcyclopropyl)sulfonyl)propanamide], with 2.9 nM. Take `Cc1c(-c2ncco2)sc2c1c(=O)n(C(C)(C)C(=O)NS(=O)(=O)C1CC1)c(=O)n2C[C@H](O[C@@H]1C[C@H]2CC[C@@H](C1)O2)c1cc(F)ccc1OC(F)F` [Example 7, 2-(1-((R)-2-(((1R,3s,5S)-8-oxabicyclo[3.2.1]octan-3-yl)oxy)-2-(2-(difluoromethoxy)-5-fluorophenyl)ethyl)-5-methyl-6-(oxazol-2-yl)-2,4-dioxo-1,4-dihydrothieno[2,3-d]pyrimidin-3(2H)-yl)-N-(cyclopropylsulfonyl)-2-methylpropanamide]: the half-maximal effective concentration (EC50) amounted to 7.6 nM.

In turn, `Cc1c(-c2ncco2)sc2c1c(=O)n(C(C)(C)C(=O)NS(=O)(=O)C(C)(C)C)c(=O)n2C[C@H](O[C@@H]1C[C@H]2CC[C@@H](C1)O2)c1cc(F)ccc1OC(F)F` [Example 8, 2-(1-((R)-2-(((1R,3s,5S)-8-oxabicyclo[3.2.1]octan-3-yl)oxy)-2-(2-(difluoromethoxy)-5-fluorophenyl)ethyl)-5-methyl-6-(oxazol-2-yl)-2,4-dioxo-1,4-dihydrothieno[2,3-d]pyrimidin-3(2H)-yl)-N-(tert-butylsulfonyl)-2-methylpropanamide] came in with an EC50 of 7 nM.

On to `Cc1c(-c2ncco2)sc2c1c(=O)n(C(C)(C)C(=O)NS(=O)(=O)c1ccccn1)c(=O)n2C[C@H](O[C@@H]1C[C@H]2CC[C@@H](C1)O2)c1cc(F)ccc1OC(F)F` [Example 9, 2-(1-((R)-2-(((1R,3s,5S)-8-oxabicyclo[3.2.1]octan-3-yl)oxy)-2-(2-(difluoromethoxy)-5-fluorophenyl)ethyl)-5-methyl-6-(oxazol-2-yl)-2,4-dioxo-1,4-dihydrothieno[2,3-d]pyrimidin-3(2H)-yl)-2-methyl-N-(pyridin-2-ylsulfonyl)propanamide], for which a half-maximal response (EC50) required 215 nM. Compound `Cc1c(-c2ncco2)sc2c1c(=O)n(C1(C(=O)NS(=O)(=O)C3(C)CC3)CC1)c(=O)n2C[C@H](O[C@@H]1C[C@H]2CC[C@@H](C1)O2)c1cc(F)ccc1OC(F)F` [Example 10, 1-(1-((R)-2-(((1R,3s,5S)-8-oxabicyclo[3.2.1]octan-3-yl)oxy)-2-(2-(difluoromethoxy)-5-fluorophenyl)ethyl)-5-methyl-6-(oxazol-2-yl)-2,4-dioxo-1,4-dihydrothieno[2,3-d]pyrimidin-3(2H)-yl)-N-((1-methylcyclopropyl)sulfonyl)cyclopropane-1-carboxamide] returned a concentration giving a half-maximal response (EC50) of 48.3 nM.

Regarding `Cc1c(-c2ncco2)sc2c1c(=O)n(C1(C(=O)NS(=O)(=O)C(C)(C)C)CC1)c(=O)n2C[C@H](O[C@@H]1C[C@H]2CC[C@@H](C1)O2)c1cc(F)ccc1OC(F)F` [Example 11, 1-(1-((R)-2-(((1R,3s,5S)-8-oxabicyclo[3.2.1]octan-3-yl)oxy)-2-(2-(difluoromethoxy)-5-fluorophenyl)ethyl)-5-methyl-6-(oxazol-2-yl)-2,4-dioxo-1,4-dihydrothieno[2,3-d]pyrimidin-3(2H)-yl)-N-(tert-butylsulfonyl)cyclopropane-1-carboxamide], the EC50 is 66.2 nM. For `Cc1c(-c2ncco2)sc2c1c(=O)n(C1(C(=O)NS(=O)(=O)C(C)(C)C)CC1)c(=O)n2C[C@H](O[C@@H]1C[C@H]2CC[C@@H](C1)O2)c1ccccc1OC(F)F` [Example 13, 1-(1-((R)-2-(((1R,3s,5S)-8-oxabicyclo[3.2.1]octan-3-yl)oxy)-2-(2-(difluoromethoxy)phenyl)ethyl)-5-methyl-6-(oxazol-2-yl)-2,4-dioxo-1,4-dihydrothieno[2,3-d]pyrimidin-3(2H)-yl)-N-(tert-butylsulfonyl)cyclopropane-1-carboxamide], the EC50 came to 882 nM. On the same count and under the same terms, then `Cc1c(-c2ncco2)sc2c1c(=O)n(C1(C(=O)NS(=O)(=O)C3(C)CC3)CC1)c(=O)n2C[C@H](O[C@@H]1C[C@H]2CC[C@@H](C1)O2)c1ccccc1OC(F)F` [Example 14, 1-(1-((R)-2-(((1R,3s,5S)-8-oxabicyclo[3.2.1]octan-3-yl)oxy)-2-(2-(difluoromethoxy)phenyl)ethyl)-5-methyl-6-(oxazol-2-yl)-2,4-dioxo-1,4-dihydrothieno[2,3-d]pyrimidin-3(2H)-yl)-N-((1-methylcyclopropyl)sulfonyl)cyclopropane-1-carboxamide], with 29.8 nM; and `Cc1c(-c2ncco2)sc2c1c(=O)n([C@@H](C)C(=O)NS(=O)(=O)C1(C)CC1)c(=O)n2C[C@H](O[C@@H]1C[C@H]2CC[C@@H](C1)O2)c1cc(F)ccc1OC(F)F` [Example 15, (S)-2-(1-((R)-2-(((1R,3s,5S)-8-oxabicyclo[3.2.1]octan-3-yl)oxy)-2-(2-(difluoromethoxy)-5-fluorophenyl)ethyl)-5-methyl-6-(oxazol-2-yl)-2,4-dioxo-1,4-dihydrothieno[2,3-d]pyrimidin-3(2H)-yl)-N-((1-methylcyclopropyl)sulfonyl)propanamide], with 2000 nM; and `COc1ccccc1[C@H](Cn1c(=O)n([C@@H](C)C(=O)NS(=O)(=O)C2(C)CC2)c(=O)c2c(C)c(-c3ncco3)sc21)O[C@@H]1C[C@H]2CC[C@@H](C1)O2` [Example 16, (S)-2-(1-((R)-2-(((1R,3s,5S)-8-oxabicyclo[3.2.1]octan-3-yl)oxy)-2-(2-methoxyphenyl)ethyl)-5-methyl-6-(oxazol-2-yl)-2,4-dioxo-1,4-dihydrothieno[2,3-d]pyrimidin-3(2H)-yl)-N-((1-methylcyclopropyl)sulfonyl)propanamide], with 1.9 nM. `COc1ccccc1[C@H](Cn1c(=O)n([C@@H](C)C(=O)NS(=O)(=O)C(C)(C)C)c(=O)c2c(C)c(-c3ncco3)sc21)O[C@@H]1C[C@H]2CC[C@@H](C1)O2` [Example 17, (S)-2-(1-((R)-2-(((1R,3s,5S)-8-oxabicyclo[3.2.1]octan-3-yl)oxy)-2-(2-methoxyphenyl)ethyl)-5-methyl-6-(oxazol-2-yl)-2,4-dioxo-1,4-dihydrothieno[2,3-d]pyrimidin-3(2H)-yl)-N-(tert-butylsulfonyl)propanamide] had an EC50 of 41.1 nM. Turning to `COc1ccccc1[C@H](Cn1c(=O)n([C@H](C)C(=O)NS(=O)(=O)C2(C)CC2)c(=O)c2c(C)c(-c3ncco3)sc21)O[C@@H]1C[C@H]2CC[C@@H](C1)O2` [Example 18, (R)-2-(1-((R)-2-(((1R,3s,5S)-8-oxabicyclo[3.2.1]octan-3-yl)oxy)-2-(2-methoxyphenyl)ethyl)-5-methyl-6-(oxazol-2-yl)-2,4-dioxo-1,4-dihydrothieno[2,3-d]pyrimidin-3(2H)-yl)-N-((1-methylcyclopropyl)sulfonyl)propanamide], it took 1 nM to reach a half-maximal effect (EC50).

Source of the values: patent US11352371B2, “Thienopyrimidine derivatives as ACC inhibitors and uses thereof” (Gilead Sciences, Inc., priority 2019, dated 2022).
